From US20260041629A1, “Methods and Systems to Reduce Injury in Treated Tissues” (MileHigh Repro Solutions, LLC, priority 2022, published 2026)

What was measured:
boar sperm = test: Experiment 2: compatibility with sperm in vitro (motility by computer assisted sperm analyzer); format: cell-based; details: exposure 3 hours, 37° C
Method: A successful cervical softening agent should be safe for a mammal's tissues and also for sperm used to inseminate the mammal. It was anticipated that the cervical tract and the AI rod will each retain a residue of the solution treatment which may then combine with the semen inside the cervix or uterus. Therefore, experiments were performed using sperm samples from boars to evaluate the toxicity of each proposed treatment and blends.
Extended boar sperm doses (28×10^6/ml; 1 ml) were incubated with each of the miscible solutions at 3 concentrations, 0.1 μL, 0.5 μL, or 1 μL per 1 mL extended sperm, then the sperm with the solution were incubated for 3 hours at 37° C. Motility characteristics were measured via computer assisted sperm analyzer. This experiment was replicated 4 times.

ewe cervices = test: Experiment 1: in vitro efficacy of solution, AI rod passage through excised cervical tracts; details: ¼ cc rod, tracts treated 1 hour, * = statistically significant improvement over control
Method: Ewe and bison cervical tracts were obtained to assess local responses in living tissue thereby modeling in vivo response to a solution. Tracts were treated for 1 hour with the respective solution using an absorbent matrix applicator, then ¼ cc AI rods were passed through the cervix, mimicking trans-cervical artificial insemination. A total of […] tracts were utilized with each of 13 treatments tested in 11 replicates. The estimated number of rings passed was recorded. Post-treatment tracts were dissected, then length and cervical anatomy were recorded, and relationships between cervical structure, ring number and position were and analyzed. Ring passage data was transformed into a percentage of rings passed to normalize the data and to allow comparison across an undefined variety of tissues, breeds, ages, and other etiological differences. A paired T-test indicated trends in increased passage of AI rod (P=0.064) when treating the cervix versus control.

Sperm motility, motile percentage of the total number of spermatozoa (boar sperm; dose 0.1 μL in 1 mL sperm): 90.7% | Sperm motility, motile percentage of the total number of spermatozoa (boar sperm; dose 0.5 μL in 1 mL sperm): 93.3% | Sperm motility, motile percentage of the total number of spermatozoa (boar sperm; dose 1 μL in 1 mL sperm): 91.8%
SMILES: CCCC[N+]1(C)[C@@H]2C[C@@H](OC(=O)[C@H](CO)c3ccccc3)C[C@H]1[C@@H]1O[C@@H]12 (stereo partly shown) [Extract F, hyoscine butylbromide]
Avg. % Cervical rings passed (ewe cervices): 50.02* %
